Test results taken from PMC7156458, “Synthetic biology based construction of biological activity-related library of fungal decalin-containing diterpenoid pyrones” (Nature Communications, 2020).

Biological target: Aβ42 (Homo sapiens, UniProt P05067)
Experiment: Th-T (thioflavin-T) assay of Aβ42 aggregation
Assay type: biochemical
Conditions: for Th-T assay plate reading, mean of three wells (Supplementary Fig. 47): source data, Ab alone and No Ab as controls

Sequence of Aβ42 (P05067 672-713): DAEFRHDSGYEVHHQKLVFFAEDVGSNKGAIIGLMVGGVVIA

Th-T fluorescence, mean of three wells (Aβ42 aggregation time course, reading M117): 3.821
Th-T fluorescence, mean of three wells (Aβ42 aggregation time course, reading M118): 3.829
Th-T fluorescence, mean of three wells (Aβ42 aggregation time course, reading M119): 3.818
Th-T fluorescence, mean of three wells (Aβ42 aggregation time course, reading M120): 3.827
Th-T fluorescence, mean of three wells (Aβ42 aggregation time course, reading M121): 3.807
Th-T fluorescence, mean of three wells (Aβ42 aggregation time course, reading M122): 3.851
Th-T fluorescence, mean of three wells (Aβ42 aggregation time course, reading M123): 3.84
Th-T fluorescence, mean of three wells (Aβ42 aggregation time course, reading M124): 3.827
Th-T fluorescence, mean of three wells (Aβ42 aggregation time course, reading M125): 3.803
Th-T fluorescence, mean of three wells (Aβ42 aggregation time course, reading M126): 3.803
Th-T fluorescence, mean of three wells (Aβ42 aggregation time course, reading M127): 3.811
Th-T fluorescence, mean of three wells (Aβ42 aggregation time course, reading M128): 3.832
Th-T fluorescence, mean of three wells (Aβ42 aggregation time course, reading M129): 3.806
Th-T fluorescence, mean of three wells (Aβ42 aggregation time course, reading M130): 3.7777
Th-T fluorescence, mean of three wells (Aβ42 aggregation time course, reading M131): 3.7932
Th-T fluorescence, mean of three wells (Aβ42 aggregation time course, reading M132): 3.801
Th-T fluorescence, mean of three wells (Aβ42 aggregation time course, reading M133): 3.762
Th-T fluorescence, mean of three wells (Aβ42 aggregation time course, reading M134): 3.777
Th-T fluorescence, mean of three wells (Aβ42 aggregation time course, reading M135): 3.785
Th-T fluorescence, mean of three wells (Aβ42 aggregation time course, reading M136): 3.777
Th-T fluorescence, mean of three wells (Supplementary Fig. 47, reading M137): 3.7533
Th-T fluorescence, mean of three wells (Supplementary Fig. 47, reading M138): 3.768
Th-T fluorescence, mean of three wells (Supplementary Fig. 47, reading M139): 3.732
Th-T fluorescence, mean of three wells (Supplementary Fig. 47, reading M140): 3.756
Th-T fluorescence, mean of three wells (Supplementary Fig. 47, reading M141): 3.727
Th-T fluorescence, mean of three wells (Supplementary Fig. 47, reading M142): 3.722
Th-T fluorescence, mean of three wells (Supplementary Fig. 47, reading M143): 3.7233
Th-T fluorescence, mean of three wells (Supplementary Fig. 47, reading M144): 3.718
Th-T fluorescence, mean of three wells (Supplementary Fig. 47, reading M145): 3.718
Th-T fluorescence, mean of three wells (Supplementary Fig. 47 source data, measurement M37 of time course): 3.91
Th-T fluorescence, mean of three wells (Supplementary Fig. 47 source data, measurement M38 of time course): 3.88
Th-T fluorescence, mean of three wells (Supplementary Fig. 47 source data, measurement M39 of time course): 3.926
Th-T fluorescence, mean of three wells (Supplementary Fig. 47 source data, measurement M40 of time course): 3.945
Th-T fluorescence, mean of three wells (Supplementary Fig. 47 source data, measurement M41 of time course): 3.951
Th-T fluorescence, mean of three wells (Supplementary Fig. 47 source data, measurement M42 of time course): 3.943
Th-T fluorescence, mean of three wells (Supplementary Fig. 47 source data, measurement M43 of time course): 3.96
Th-T fluorescence, mean of three wells (Supplementary Fig. 47 source data, measurement M44 of time course): 3.975
Th-T fluorescence, mean of three wells (Supplementary Fig. 47 source data, measurement M45 of time course): 3.993
Th-T fluorescence, mean of three wells (Supplementary Fig. 47 source data, measurement M46 of time course): 3.9875
Th-T fluorescence, mean of three wells (Supplementary Fig. 47 source data, measurement M47 of time course): 4.0057
Th-T fluorescence, mean of three wells (Supplementary Fig. 47 source data, measurement M48 of time course): 4.03
Th-T fluorescence, mean of three wells (Supplementary Fig. 47 source data, measurement M49 of time course): 4.026
Th-T fluorescence, mean of three wells (Supplementary Fig. 47 source data, measurement M50 of time course): 3.972
Th-T fluorescence, mean of three wells (Supplementary Fig. 47 source data, measurement M51 of time course): 4.006
Th-T fluorescence, mean of three wells (Supplementary Fig. 47 source data, measurement M52 of time course): 4
Th-T fluorescence, mean of three wells (Supplementary Fig. 47 source data, measurement M53 of time course): 3.995
Th-T fluorescence, mean of three wells (Supplementary Fig. 47 source data, measurement M54 of time course): 4.005
Th-T fluorescence, mean of three wells (Supplementary Fig. 47 source data, measurement M55 of time course): 4.01
Th-T fluorescence, mean of three wells (Supplementary Fig. 47 source data, measurement M56 of time course): 4.026
Th-T assay plate reading, mean of three wells (Supplementary Fig. 47) (measurement M1): 0.1917
Th-T assay plate reading, mean of three wells (Supplementary Fig. 47) (measurement M2): 0.1872
Th-T assay plate reading, mean of three wells (Supplementary Fig. 47) (measurement M3): 0.2017
Th-T assay plate reading, mean of three wells (Supplementary Fig. 47) (measurement M4): 0.2278
Th-T assay plate reading, mean of three wells (Supplementary Fig. 47) (measurement M5): 0.2368
Th-T assay plate reading, mean of three wells (Supplementary Fig. 47) (measurement M6): 0.2919
Th-T assay plate reading, mean of three wells (Supplementary Fig. 47) (measurement M7): 0.3712
Th-T assay plate reading, mean of three wells (Supplementary Fig. 47) (measurement M8): 0.4061
Th-T assay plate reading, mean of three wells (Supplementary Fig. 47) (measurement M9): 0.4563
Th-T assay plate reading, mean of three wells (Supplementary Fig. 47) (measurement M10): 0.5903
Th-T assay plate reading, mean of three wells (Supplementary Fig. 47) (measurement M11): 0.9948
Th-T assay plate reading, mean of three wells (Supplementary Fig. 47) (measurement M12): 1.768
Th-T assay plate reading, mean of three wells (Supplementary Fig. 47) (measurement M13): 2.41
Th-T assay plate reading, mean of three wells (Supplementary Fig. 47) (measurement M14): 2.789
Th-T assay plate reading, mean of three wells (Supplementary Fig. 47) (measurement M15): 2.988
Th-T assay plate reading, mean of three wells (Supplementary Fig. 47) (measurement M16): 3.116
Th-T fluorescence, mean of three wells (reading M17, Supplementary Fig. 47 source data): 3.2228
Th-T fluorescence, mean of three wells (reading M18, Supplementary Fig. 47 source data): 3.274
Th-T fluorescence, mean of three wells (reading M19, Supplementary Fig. 47 source data): 3.356
Th-T fluorescence, mean of three wells (reading M20, Supplementary Fig. 47 source data): 3.42
Th-T fluorescence, mean of three wells (reading M21, Supplementary Fig. 47 source data): 3.466
Th-T fluorescence, mean of three wells (reading M22, Supplementary Fig. 47 source data): 3.5211
Th-T fluorescence, mean of three wells (reading M23, Supplementary Fig. 47 source data): 3.558
Th-T fluorescence, mean of three wells (reading M24, Supplementary Fig. 47 source data): 3.581
Th-T fluorescence, mean of three wells (reading M25, Supplementary Fig. 47 source data): 3.61
Th-T fluorescence, mean of three wells (reading M26, Supplementary Fig. 47 source data): 3.64
Th-T fluorescence, mean of three wells (reading M27, Supplementary Fig. 47 source data): 3.697
Th-T fluorescence, mean of three wells (reading M28, Supplementary Fig. 47 source data): 3.7304
Th-T fluorescence, mean of three wells (reading M29, Supplementary Fig. 47 source data): 3.755
Th-T fluorescence, mean of three wells (reading M30, Supplementary Fig. 47 source data): 3.765
Th-T fluorescence, mean of three wells (reading M31, Supplementary Fig. 47 source data): 3.799
Th-T fluorescence, mean of three wells (reading M32, Supplementary Fig. 47 source data): 3.833
Th-T fluorescence, mean of three wells (reading M33, Supplementary Fig. 47 source data): 3.798
Th-T fluorescence, mean of three wells (reading M34, Supplementary Fig. 47 source data): 3.8608
Th-T fluorescence, mean of three wells (reading M35, Supplementary Fig. 47 source data): 3.851
Th-T fluorescence, mean of three wells (reading M36, Supplementary Fig. 47 source data): 3.863
Th-T fluorescence, mean of three wells (time course, reading M57): 4.004
Th-T fluorescence, mean of three wells (time course, reading M58): 4.031
Th-T fluorescence, mean of three wells (time course, reading M59): 4.01
Th-T fluorescence, mean of three wells (time course, reading M60): 3.981
Th-T fluorescence, mean of three wells (time course, reading M61): 4.001
Th-T fluorescence, mean of three wells (time course, reading M62): 4.022
Th-T fluorescence, mean of three wells (time course, reading M63): 4.022
Th-T fluorescence, mean of three wells (time course, reading M64): 3.993
Th-T fluorescence, mean of three wells (time course, reading M65): 3.998
Th-T fluorescence, mean of three wells (time course, reading M66): 4.007
Th-T fluorescence, mean of three wells (time course, reading M67): 3.974
Th-T fluorescence, mean of three wells (time-course reading M97, Supplementary Fig. 47 source data): 3.915
Th-T fluorescence, mean of three wells (time-course reading M98, Supplementary Fig. 47 source data): 3.9
Th-T fluorescence, mean of three wells (time-course reading M99, Supplementary Fig. 47 source data): 3.901
Th-T fluorescence, mean of three wells (time-course reading M100, Supplementary Fig. 47 source data): 3.914
Th-T fluorescence, mean of three wells (time-course reading M101, Supplementary Fig. 47 source data): 3.9074
Th-T fluorescence, mean of three wells (time-course reading M102, Supplementary Fig. 47 source data): 3.878
Th-T fluorescence, mean of three wells (time-course reading M103, Supplementary Fig. 47 source data): 3.8886
Th-T fluorescence, mean of three wells (time-course reading M104, Supplementary Fig. 47 source data): 3.914
Th-T fluorescence, mean of three wells (time-course reading M105, Supplementary Fig. 47 source data): 3.865
Th-T fluorescence, mean of three wells (time-course reading M106, Supplementary Fig. 47 source data): 3.9
Th-T fluorescence, mean of three wells (time-course reading M107, Supplementary Fig. 47 source data): 3.909
Th-T fluorescence, mean of three wells (time-course reading M108, Supplementary Fig. 47 source data): 3.872
Th-T fluorescence, mean of three wells (time-course reading M109, Supplementary Fig. 47 source data): 3.882
Th-T fluorescence, mean of three wells (time-course reading M110, Supplementary Fig. 47 source data): 3.8573
Th-T fluorescence, mean of three wells (time-course reading M111, Supplementary Fig. 47 source data): 3.873
Th-T fluorescence, mean of three wells (time-course reading M112, Supplementary Fig. 47 source data): 3.8761
Th-T fluorescence, mean of three wells (time-course reading M113, Supplementary Fig. 47 source data): 3.855
Th-T fluorescence, mean of three wells (time-course reading M114, Supplementary Fig. 47 source data): 3.858
Th-T fluorescence, mean of three wells (time-course reading M115, Supplementary Fig. 47 source data): 3.833
Th-T fluorescence, mean of three wells (time-course reading M116, Supplementary Fig. 47 source data): 3.836
SMILES: C=C1CCC2C3(C)CC(C=C(C)C)OC3CCC2(C)C1Cc1c(OC)oc(C)c(C)c1=O (centres unmarked) [Compound 23]
